Blank lines part the entries; values can stand above or below the molecule they belong to.
Tests used:
MEL-JUSO xenografts [1] = assay: Compound A and Compound B efficacy in MEL-JUSO xenografts (NRAS mutant melanoma); assay type: in vivo; details: oral
Source text: The oncogenic drivers in a sizable fraction of melanomas are mutant alleles of NRAS that encode one of several variants at position Q61 in the protein. Similar to activated alleles of BRAF, these alleles encode constitutively activated forms of the protein that drive signaling through the MAPK pathway. One consequence of the activation of MAPK signaling is the elevation of cyclin D1 levels that help drive cell cycle progression. […] Based on these observations, the single agent and combination effects of Compound A, and the MEK1/2 inhibitor Compound B, on the in vivo proliferation of MEL-JUSO melanoma model, harboring mutant alleles of NRAS was studied. […] T/C % is defined as the mean change in tumor volume from the time of treatment initiation to the end of study. The % regression is calculated as 100×ΔT/Tinitial if ΔT<0. Complete regression is defined as non-palpable tumor.
All treatments were well-tolerated by the animals with no significant body weight loss observed over the duration of the study (Table 5).

Hs 944.T xenografts = assay: Compound A efficacy in Hs 944.T xenografts in nude mice; assay type: in vivo, mouse; details: for Change in body weight (%, mean ± SEM) / Change in tumor volume (mm^3, mean ± SEM) / Survival / T/C (%): oral
MEL-JUSO xenografts [2] = assay: Compound A efficacy in MEL-JUSO xenografts in SCID-beige mice; assay type: in vivo; details: Compound A 150 mg/kg qd, oral
[3] = test system: MEL-JUSO melanoma cells with activated NRAS; assay: BrdU uptake assay, MEL-JUSO; assay type: cell-based; details: Homo sapiens
Description: (§1) Three melanoma cell lines, MEL-JUSO, SK-MEL2 and Hs 944.T, which harbor the Q61X activating mutation of NRAS, were tested with Compound A and Compound B to measure their sensitivity to the inhibitors.

[4] = test system: SK-MEL2 melanoma cells with activated NRAS; assay: BrdU uptake assay, SK-MEL2; assay type: cell-based; details: Homo sapiens, SK-MEL-2
Description: as §1

[5] = test system: Hs 944.T melanoma cells with activated NRAS; assay: BrdU uptake assay, Hs 944.T; assay type: cell-based; details: Hs 944.T cells
Description: as §1

SMILES: CN(C)C(=O)c1cc2cnc(Nc3ccc(N4CCNCC4)cn3)nc2n1C1CCCC1 [Compound A, 7-Cyclopentyl-2-(5-piperazin-1-yl-pyridin-2-ylamino)-7H-pyrrolo[2,3-d]pyrimidine-6-carboxylic acid dimethylamide]
Change in body weight (%, mean ± SEM) (MEL-JUSO xenografts [1]; Compound A 75 mg/kg qd): −3.9 ± 1.5%
Change in tumor volume (mm^3, mean ± SEM) (MEL-JUSO xenografts [1]; Compound A 75 mg/kg qd): 236 ± 32 mm^3
Survival (MEL-JUSO xenografts [1]; Compound A 75 mg/kg qd): 6/6
T/C (%) (MEL-JUSO xenografts [1]; Compound A 75 mg/kg qd): 47%
Change in body weight (%, mean ± SEM) (MEL-JUSO xenografts [1]; Compound A 150 mg/kg qd): −3.9 ± 2.1%
Change in tumor volume (mm^3, mean ± SEM) (MEL-JUSO xenografts [1]; Compound A 150 mg/kg qd): 157 ± 33 mm^3
Survival (MEL-JUSO xenografts [1]; Compound A 150 mg/kg qd): 6/6
T/C (%) (MEL-JUSO xenografts [1]; Compound A 150 mg/kg qd): 32%
Change in body weight (%, mean ± SEM) (MEL-JUSO xenografts [1]; Compound A 250 mg/kg qd): −2.7 ± 1.6%
Change in tumor volume (mm^3, mean ± SEM) (MEL-JUSO xenografts [1]; Compound A 250 mg/kg qd): 9 ± 11 mm^3
Survival (MEL-JUSO xenografts [1]; Compound A 250 mg/kg qd): 6/6
T/C (%) (MEL-JUSO xenografts [1]; Compound A 250 mg/kg qd): 2%
Animals classified as TR deaths due to body weight loss criteria (Hs 944.T xenografts; Compound A 150 mg/kg qd): Three animals each from the 150 mg/kg and 250 mg/kg Compound A treatment groups were classified as TR deaths due to body weight loss criteria, and excluded from data analysis.
Change in body weight (%, mean ± SEM) (Hs 944.T xenografts; Compound A 150 mg/kg qd): −12.7 ± 2.1%
Change in tumor volume (mm^3, mean ± SEM) (Hs 944.T xenografts; Compound A 150 mg/kg qd): 86 ± 17 mm^3
Survival (Hs 944.T xenografts; Compound A 150 mg/kg qd): 5/8
T/C (%) (Hs 944.T xenografts; Compound A 150 mg/kg qd): 36%
Animals classified as TR deaths due to body weight loss criteria (Hs 944.T xenografts; Compound A 250 mg/kg qd): Three animals each from the 150 mg/kg and 250 mg/kg Compound A treatment groups were classified as TR deaths due to body weight loss criteria, and excluded from data analysis.
Change in body weight (%, mean ± SEM) (Hs 944.T xenografts; Compound A 250 mg/kg qd): −19.7 ± 0.6%
Change in tumor volume (mm^3, mean ± SEM) (Hs 944.T xenografts; Compound A 250 mg/kg qd): 45 ± 25 mm^3
Survival (Hs 944.T xenografts; Compound A 250 mg/kg qd): 5/8
T/C (%) (Hs 944.T xenografts; Compound A 250 mg/kg qd): 19%
Change in body weight (%, mean ± SEM) (MEL-JUSO xenografts [2]): −7.3 ± 1.2%
Change in tumor volume (mm^3, mean ± SEM) (MEL-JUSO xenografts [2]): −32 ± 14 mm^3
Survival (MEL-JUSO xenografts [2]): 6/6
IC50 [3]: 360 nM
IC50 [4]: 750 nM
IC50 [5]: 3830 nM

IC50 [3]: 24 nM
IC50 [4]: 990 nM
IC50 [5]: 554 nM
SMILES: Cn1cnc2c(F)c(Nc3ccc(Br)cc3F)c(C(=O)NOCCO)cc21 [Compound B, 6-(4-bromo-2-fluorophenylamino)-7-fluoro-3-methyl-3H-benzoimidazole-5-carboxylic acid (2-hydroxyethyoxy)-amide]
Change in body weight (%, mean ± SEM) (MEL-JUSO xenografts [1]; Compound B 3.5 mg/kg bid): −0.3 ± 2.1%
Change in tumor volume (mm^3, mean ± SEM) (MEL-JUSO xenografts [1]; Compound B 3.5 mg/kg bid): 59 ± 24 mm^3
Survival (MEL-JUSO xenografts [1]; Compound B 3.5 mg/kg bid): 6/6
T/C (%) (MEL-JUSO xenografts [1]; Compound B 3.5 mg/kg bid): 12%
Change in body weight (%, mean ± SEM) (MEL-JUSO xenografts [1]; Compound B 10 mg/kg bid): 5.1 ± 1.1%
Change in tumor volume (mm^3, mean ± SEM) (MEL-JUSO xenografts [1]; Compound B 10 mg/kg bid): −47 ± 11 mm^3
Regression (%) (MEL-JUSO xenografts [1]; Compound B 10 mg/kg bid): 38%
Survival (MEL-JUSO xenografts [1]; Compound B 10 mg/kg bid): 6/6

Source: patent publication US9867825B2, “Pharmaceutical combination comprising binimetinib” (Novartis AG, priority 2012, dated 2018)
